Results taken from patent publication US6362369B1, “Phthalic acid diamide derivatives fluorine-containing aniline compounds as starting material, agricultural and horticultural insecticides, and a method for application of the insecticides” (Nihon Nohyaku Co., Ltd., priority 1997, dated 2002).

Experiments:
Type in all cases: in vivo
[1] = tested on: diamondback moth (Plutella xylostella); assay: Insecticidal effect on diamondback moth (Test Example 1); conditions: for Insecticidal effect on diamondback moth (Test Example 1), judged grade: mortality judged according to the criterion shown in Test Example 1; for Insecticidal effect, Test Example 1 / Insecticidal effect (Test Example 1), judged from mortality: diamondback moth; for Insecticidal effect (Test Example 1), judged from mortality: judged by the criterion of Test Example 1
How it was run: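 Triplicate groups of 10 insects were scored: six days after immersion of oviposited Chinese cabbage seedlings and holding at 25 °C post air-drying, hatched larvae were counted. Mortality derived from these counts and insecticidal effect judged by a set criterion.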

[2] = tested on: common cutworm (Spodoptera Litura); assay: Insecticidal effect on common cutworm (Test Example 2); conditions: 500 ppm, 25° C.; for Insecticidal effect on common cutworm (Test Example 2), judged grade / Insecticidal effect (Test Example 2), judged from mortality: cabbage leaf dip; for Insecticidal effect on common cutworm (Test Example 2), judged grade: second-instar larvae; for Insecticidal effect on common cutworm (Test Example 2), judged grade / Insecticidal effect, Test Example 2: eight days after inoculation; for Insecticidal effect, Test Example 2: cabbage leaf immersed; for Insecticidal effect (Test Example 2), judged from mortality: 8 days after inoculation
How it was run: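 Second-instar larvae placed in 9 cm Petri dishes with air-dried treated material, held at 25 °C. Dead and live insects counted 8 days after inoculation; mortality calculated and scored against a set criterion. Triplicate groups of 10 insects.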

[3] = tested on: rice leafroller (Cnaphalocrocis medinalis); assay: Insecticidal effect on rice leafroller (Test Example 3); conditions: 500 ppm, 25° C., humidity 70%; for Insecticidal effect on rice leafroller (Test Example 3), judged grade / Insecticidal effect (Test Example 3), judged from mortality: rice lamina dip; for Insecticidal effect on rice leafroller (Test Example 3), judged grade: third-instar larvae; for Insecticidal effect on rice leafroller (Test Example 3), judged grade / Insecticidal effect, Test Example 3: four days after inoculation; for Insecticidal effect, Test Example 3: rice lamina immersed; for Insecticidal effect (Test Example 3), judged from mortality: 4 days after inoculation
How it was run: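 Insecticidal effect is judged by a predefined criterion from dead/alive counts four days after infesting air-dried lamina with third-instar larvae, kept on moistened filter paper at 25° C, 70% humidity.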

[4] = mortality judged by criterion of Test Example 1
[5] = common cutworm second-instar larvae
[6] = rice leafroller third-instar larvae
[7] = judged by the mortality criterion of Test Example 1
[8] = second-instar larvae of common cutworm
[9] = third-instar larvae of rice leafroller

## Cc1cc(SC(F)(F)C(F)(F)F)ccc1NC(=O)c1cccc(I)c1C(=O)NC(C)C [compound 909]
[1]
  Insecticidal effect on diamondback moth (Test Example 1), judged grade: A (100)
[2]
  Insecticidal effect on common cutworm (Test Example 2), judged grade: A (100)
[3]
  Insecticidal effect on rice leafroller (Test Example 3), judged grade: A (100)

## Cc1cc([S+]([O-])C(F)(F)F)ccc1NC(=O)c1cccc(I)c1C(=O)NC(C)C (stereo not drawn) [compound 1168]
[1]; [4]
  Insecticidal effect, Test Example 1: A (100)
[2]; [5]
  Insecticidal effect, Test Example 2: A (100)
[3]; [6]
  Insecticidal effect, Test Example 3: A (100)

## CC(C)NC(=O)c1c(Cl)cccc1C(=O)Nc1ccc([S+]([O-])C(F)(F)F)cc1 (stereo not drawn) [compound 1001]
[1]; [4]
  Insecticidal effect, Test Example 1: A (100)
[2]; [5]
  Insecticidal effect, Test Example 2: A (100)
[3]; [6]
  Insecticidal effect, Test Example 3: A (100)

## CC(C)NC(=O)c1c(I)cccc1C(=O)Nc1ccc(C(F)(F)C(F)(F)F)cc1 [compound 895]
[1]
  Insecticidal effect on diamondback moth (Test Example 1), judged grade: A (100)
[2]
  Insecticidal effect on common cutworm (Test Example 2), judged grade: A (100)
[3]
  Insecticidal effect on rice leafroller (Test Example 3), judged grade: A (100)

## CC(C)NC(=O)c1c(I)cccc1C(=O)Nc1ccc2c(c1)OC(F)(F)C(F)O2 (stereo not drawn) [compound 1161]
[1]; [4]
  Insecticidal effect, Test Example 1: A (100)
[2]; [5]
  Insecticidal effect, Test Example 2: D (79-50)
[3]; [6]
  Insecticidal effect, Test Example 3: A (100)

## Cc1c(Br)ccc(NC(=O)c2cccc(Br)c2C(=O)NC(C)C)c1C [compound 273]
[1]; [7]
  Insecticidal effect, Test Example 1: A (100)
[2]; [8]
  Insecticidal effect, Test Example 2: D (79-50)
[3]; [9]
  Insecticidal effect, Test Example 3: D (79-50)

## Cc1cc(C(F)(F)C(F)(F)F)ccc1NC(=O)c1cccc(Cl)c1C(=O)NC(C)(C)C#Cc1ccc(Cl)cc1Cl [compound 1571]
[1]
  Insecticidal effect (Test Example 1), judged from mortality: A (100)
[2]; [8]
  Insecticidal effect (Test Example 2), judged from mortality: A (100)
[3]; [9]
  Insecticidal effect (Test Example 3), judged from mortality: A (100)

## CCNC(=O)c1c(I)cccc1C(=O)Nc1ccc(C(F)(F)C(F)(F)F)cc1C [compound 1313]
[1]; [4]
  Insecticidal effect, Test Example 1: A (100)
[2]; [5]
  Insecticidal effect, Test Example 2: A (100)
[3]; [6]
  Insecticidal effect, Test Example 3: A (100)

## CC(C)NC(=O)c1c(Cl)cccc1C(=O)Nc1ccc(F)cc1Cl [compound 114]
[1]; [7]
  Insecticidal effect, Test Example 1: A (100)
[2]; [8]
  Insecticidal effect, Test Example 2: A (100)
[3]; [9]
  Insecticidal effect, Test Example 3: A (100)

## Cc1cc(OC(F)(F)C(F)C(F)(F)F)ccc1NC(=O)c1cccc(F)c1C(=O)NC(C)C (stereo not drawn) [compound 514]
[1]
  Insecticidal effect on diamondback moth (Test Example 1), judged grade: A (100)
[2]
  Insecticidal effect on common cutworm (Test Example 2), judged grade: A (100)
[3]
  Insecticidal effect on rice leafroller (Test Example 3), judged grade: A (100)

## Cc1cc(C(F)(C(F)(F)F)C(F)(F)F)ccc1NC(=O)c1c(I)cccc1C(=O)NC(C)C [compound 439]
[1]; [7]
  Insecticidal effect, Test Example 1: A (100)
[2]; [8]
  Insecticidal effect, Test Example 2: A (100)
[3]; [9]
  Insecticidal effect, Test Example 3: A (100)

## CC(C)NC(=O)c1ccccc1C(=O)Nc1ccc(Cl)cc1Cl [compound 42]
[1]; [7]
  Insecticidal effect, Test Example 1: A (100)
[2]; [8]
  Insecticidal effect, Test Example 2: D (79-50)
[3]; [9]
  Insecticidal effect, Test Example 3: A (100)

## CC(C)NC(=O)c1ccccc1C(=O)Nc1ccc(OC(F)(F)F)cc1 [compound 29]
[1]; [7]
  Insecticidal effect, Test Example 1: A (100)
[2]; [8]
  Insecticidal effect, Test Example 2: B (99-90)
[3]; [9]
  Insecticidal effect, Test Example 3: A (100)

## COc1cccc(NC(=O)c2cccc([N+](=O)[O-])c2C(=O)NC(C)C)c1C [compound 687]
[1]
  Insecticidal effect on diamondback moth (Test Example 1), judged grade: A (100)
[2]
  Insecticidal effect on common cutworm (Test Example 2), judged grade: D (79-50)
[3]
  Insecticidal effect on rice leafroller (Test Example 3), judged grade: D (79-50)

## CCCNC(=O)c1c(Cl)cccc1C(=O)Nc1ccc(C(F)(F)C(F)(F)F)cc1F [compound 1491]
[1]
  Insecticidal effect (Test Example 1), judged from mortality: A (100)
[2]; [8]
  Insecticidal effect (Test Example 2), judged from mortality: A (100)
[3]; [9]
  Insecticidal effect (Test Example 3), judged from mortality: A (100)

## Cc1cc(C(F)(F)C(F)(F)F)ccc1NC(=O)c1cccc(I)c1C(=O)N(C)C [compound 1068]
[1]; [4]
  Insecticidal effect, Test Example 1: A (100)
[2]; [5]
  Insecticidal effect, Test Example 2: A (100)
[3]; [6]
  Insecticidal effect, Test Example 3: A (100)

## C#CC(C)(C)NC(=O)c1c(I)cccc1C(=O)Nc1ccc(OC(F)F)cc1C [compound 1635]
[1]
  Insecticidal effect (Test Example 1), judged from mortality: A (100)
[2]; [8]
  Insecticidal effect (Test Example 2), judged from mortality: A (100)
[3]; [9]
  Insecticidal effect (Test Example 3), judged from mortality: A (100)

## Cc1cc(SC(F)(F)C(F)(F)F)ccc1NC(=O)c1cccc(F)c1C(=O)NC(C)C [compound 905]
[1]
  Insecticidal effect on diamondback moth (Test Example 1), judged grade: A (100)
[2]
  Insecticidal effect on common cutworm (Test Example 2), judged grade: A (100)
[3]
  Insecticidal effect on rice leafroller (Test Example 3), judged grade: A (100)
